Test results taken from ChEMBL document CHEMBL1130292, “Novel cyanoguanidines with potent oral antitumour activity” (Bioorg Med Chem Lett, 1997).

Legend:
[1] = system: MCF7; assay: Evaluated in vitro for antiproliferative activity against MCF-7 cell lines model of hormone dependent breast cancer; format: functional, cell-based; conditions: Homo sapiens
[2] = system: NCI-H460; assay: Evaluated in vitro for antiproliferative activity against […] cell lines derived from large cell carcinoma of the lung; format: functional, cell-based; conditions: Homo sapiens
[3] = system: NYH small cell lung cancer (Homo sapiens); assay: Evaluated in vitro for antiproliferative activity against NYH cell lines derived from small cell lung cancer
[4] = system: Mus musculus; assay: Percent median treated tumor size to that of control tumor size in NYH treatment model in mice (in vivo) after peroral administration of compound (20 mg/kg, number of tumors 8); format: functional
[5] = system: Mus musculus; assay: Percent median treated tumor size to that of control tumor size in NYH treatment model in mice (in vivo) after peroral administration of compound (20 mg/kg, number of tumors 11); format: functional
[6] = system: Mus musculus; assay: Percent median treated tumor size to that of control tumor size in NYH treatment model in mice (in vivo) after peroral administration of compound (20 mg/kg, number of tumors 9); format: functional
[7] = system: B16; assay: In vitro antiproliferative activity against B16 cell lines; format: functional, cell-based; conditions: Mus musculus
[8] = In vitro antiproliferative activity against Fibroblasts; format: functional
[9] = system: Lewis lung carcinoma cell line; assay: In vitro antiproliferative activity against Lewis cell lines; format: functional, cell-based; conditions: Mus musculus
[10] = system: Mus musculus; assay: Percent median treated tumor size to that of control tumor size in NYH treatment model in mice (in vivo) after peroral administration of compound (25 mg/kg, number of tumors 9); format: functional
[11] = system: Mus musculus; assay: Percent median treated tumor size to that of control tumor size in NYH treatment model in mice (in vivo) after peroral administration of compound (50 mg/kg, number of tumors 13); format: functional
[12] = system: Mus musculus; assay: Percent median treated tumor size to that of control tumor size in NYH treatment model in mice (in vivo) after peroral administration of compound (20 mg/kg, number of tumors 20); format: functional
[13] = system: WALKER; assay: In vitro antiproliferative activity against Walker cell line; format: functional, cell-based; conditions: Rattus norvegicus
[14] = system: YOSHIDA; assay: In vitro antiproliferative activity against Yoshida cell lines; format: functional, cell-based; conditions: Rattus norvegicus
[15] = system: Mus musculus; assay: Percent median treated tumor size to that of control tumor size in NYH treatment model in mice (in vivo) after intraperitoneal administration of compound (0.5 mg/kg, number of tumors 8); format: functional
[16] = system: Mus musculus; assay: Percent median treated tumor size to that of control tumor size in NYH treatment model in mice (in vivo) after subcutaneous administration of compound (10 mg/kg, number of tumors 7); format: functional

N#CN/C(=N\CCCCCCOc1ccccc1Cl)Nc1ccncc1
IC50 [1]: 1.9 nM
IC50 [2]: 5.8 nM
IC50 [3]: 0.6 nM

N#CN/C(=N\CCCCCCCOc1ccccc1)Nc1cccnc1
IC50 [1]: 42 nM
IC50 [2]: 360 nM
IC50 [3]: 22 nM

COc1ccccc1OCCCCCC/N=C(\NC#N)Nc1ccncc1
IC50 [1]: 1.1 nM
IC50 [2]: 21 nM
IC50 [3]: 0.5 nM

COc1ccc(OCCCCCC/N=C(\NC#N)Nc2ccncc2)cc1
IC50 [1]: 37 nM
IC50 [2]: 37 nM
IC50 [3]: 12 nM

N#CN/C(=N\CCCCCCCCOc1ccc(Cl)cc1)Nc1ccncc1
IC50 [1]: 54 nM
IC50 [2]: 480 nM
IC50 [3]: 15 nM

N#CN/C(=N\CCCCCCOc1ccc([N+](=O)[O-])cc1)Nc1ccncc1
IC50 [1]: 120 nM
IC50 [2]: 590 nM
IC50 [3]: 52 nM

N#CN/C(=N\CCCCCCOc1ccccc1)Nc1ccncc1
IC50 [1]: 30 nM
IC50 [2]: 52 nM
IC50 [3]: 4.9 nM

COc1cccc(OCCCCCC/N=C(\NC#N)Nc2ccncc2)c1
IC50 [1]: 3.8 nM
T/C [4]: 42%
IC50 [2]: 38 nM
IC50 [3]: 1.9 nM

N#CN/C(=N\CCCCCCOc1ccccc1[N+](=O)[O-])Nc1ccncc1
IC50 [1]: 6.3 nM
IC50 [2]: 41 nM
IC50 [3]: 0.6 nM

N#CN/C(=N\CCCCCCCOc1ccc(Cl)cc1)Nc1ccncc1
IC50 [1]: 56 nM
IC50 [2]: 69 nM
IC50 [3]: 6.2 nM

N#CN/C(=N\CCCCCCCOc1ccccc1)Nc1ccncc1
IC50 [1]: 14 nM
T/C [5]: 35%
IC50 [2]: 27 nM
IC50 [3]: 0.6 nM

N#CN/C(=N\CCCCCCOc1cccc(Cl)c1)Nc1ccncc1
IC50 [1]: 8.8 nM
IC50 [2]: 59 nM
IC50 [3]: 6.1 nM

N#CN/C(=N\CCCCCCOc1ccccc1)Nc1cccnc1
IC50 [1]: 230 nM
IC50 [2]: 530 nM
IC50 [3]: 52 nM

N#CN/C(=N\CCCCCCOc1cccc([N+](=O)[O-])c1)Nc1ccncc1
IC50 [1]: 31 nM
IC50 [2]: 74 nM
IC50 [3]: 5.7 nM

N#CN/C(=N\CCCCCOc1ccc(Cl)cc1)Nc1ccncc1
IC50 [1]: 53 nM
IC50 [2]: 590 nM
IC50 [3]: 6.3 nM

N#CN/C(=N\CCCCCCOc1cc(Cl)c(Cl)cc1Cl)Nc1ccncc1
IC50 [1]: 4.4 nM
T/C [6]: 0%
IC50 [2]: 13 nM
IC50 [3]: 2.1 nM

N#CN=C(NCCCCCCOc1ccc(Cl)cc1)Nc1ccncc1 [CHS-828]
IC50 [7]: 280 nM
IC50 [8]: 40 nM
IC50 [1]: 31 nM
IC50 [9]: 560 nM
T/C [10]: 0%
T/C [11]: 0%
T/C [12]: 0%
IC50 [2]: 50 nM
IC50 [13]: 500 nM
IC50 [14]: 140 nM
IC50 [3]: 2.7 nM

COc1cccc2c1C(=O)c1c(O)c3c(c(O)c1C2=O)C[C@@](O)(C(C)=O)C[C@@H]3O[C@H]1C[C@H](N)[C@H](O)[C@H](C)O1 [DAUNORUBICIN]
IC50 [7]: 9.2 nM
IC50 [1]: 39 nM
IC50 [9]: 61 nM
T/C [15]: 105%
IC50 [2]: 3.5 nM
IC50 [13]: 47 nM
IC50 [14]: 7.4 nM
IC50 [3]: 3.9 nM

CC(=O)O[C@H]1C(=O)[C@@]2(C)[C@H]([C@H](OC(=O)c3ccccc3)[C@]3(O)C[C@H](OC(=O)[C@H](O)[C@@H](NC(=O)c4ccccc4)c4ccccc4)C(C)=C1C3(C)C)[C@]1(OC(C)=O)CO[C@@H]1C[C@@H]2O [PACLITAXEL]
IC50 [7]: 8 nM
IC50 [8]: 0.9 nM
IC50 [9]: 61 nM
T/C [16]: 48%
IC50 [13]: 150 nM
IC50 [14]: 7.9 nM
IC50 [3]: 4.3 nM
